Test results published in patent publication US20250304571A1, “BIOLOGICALLY ACTIVE COMPOUNDS AND METHODS THEREOF” (Suzhou Keen Therapeutics Co., Ltd., priority 2022, published 2025).

The compounds below were run on 786-O (renal cell carcinoma) cells (assay: Cell viability (CellTiter Glo) assay, inhibition of 786-O cell proliferation). Conditions: 786-O cells, 72 hours, CellTiter Glo; read-out: IC50, inhibition of 786-O cell proliferation.
Assay type: cell-based

| Structure (SMILES) | IC50 [nM] |
| --- | --- |
| CC1(C)C(=O)N(c2ccc(N3CCOCC3)cc2)c2nc(COC(=N)N3CCCCC3C(F)(F)F)nc(N)c21 (stereo not drawn) [Compound E172] | < 100 |
| N=C(OCc1nc(NC2CC2)c2c(n1)N(c1cc(F)cc(F)c1)C(=O)C21CCCC1)N1CCC[C@@H]1C(F)(F)F [Compound E206] | 100 to 500 |

Same assay, conditions: Homo sapiens, 786-0, 72 h, read-out: IC50, inhibition of 786-O cell proliferation

| Structure (SMILES) | IC50 [nM] |
| --- | --- |
| COc1cc(N2CCOCC2)ccc1N1CC(C)(C)c2c(OCC(F)(F)F)nc(COC(=N)N3CCC[C@@H]3C(F)(F)F)nc21 [Compound E17] | < 100 |
| CN(C)C(=N)OCc1ncc2c(n1)N(c1ccc(OC3CCOCC3)nc1)CC21CC1 [Compound E147] | > 5000 |

Same assay, conditions: Homo sapiens, 786-0; 786-O cells, 72 hours, CellTiter Glo; read-out: IC50, inhibition of 786-O cell proliferation

| Structure (SMILES) | IC50 [nM] |
| --- | --- |
| CCCC[C@H]1Cc2cc(OC)ccc2[C@H](c2ccc(F)cc2)N1C(=O)CO/C(=N\CCCN(C)C)NCC [Compound A3] | > 5000 |
| CNc1nc(COC(=N)N2CCC[C@@H]2C(F)(F)F)nc2c1C1(CCCC1)C(=O)N2c1cnc(N2CCC(F)(F)C2)nc1 [Compound E83] | < 100 |
| CCN(CC(F)(F)F)C(=N)OCc1ncc(C#N)c(Nc2ccc(Oc3ccccc3)cc2)c1F [Compound F54] | 500 to 5000 |
| C[C@@H]1CN(c2ccc(N3CC(C)(C)c4c(N)nc(COC(=N)N5CCC[C@@H]5C(F)(F)F)nc43)cn2)C[C@H](C)O1 [Compound E20] | < 100 |
| Nc1nc(COc2nc(=O)[nH]c(=O)[nH]2)nc(Nc2ccc(Oc3ccccc3)cc2)n1 [Compound F53] | > 5000 |
| CNc1nc(COC(=N)N(C)C2COC2)nc2c1C(C)(C)C(=O)N2c1ccc(OC2CCCCC2)cc1 [Compound E169] | 100 to 500 |
| C#CCOc1cccc(Oc2ccc(Nc3nc(N)nc(COC(=N)N4CCCCC4C(F)(F)F)n3)cc2)c1 (stereo not drawn) [Compound F46] | < 100 |
| CNc1nc(COC(=N)N2CCCC2C(F)(F)F)nc2c1C(C)(C)C(=O)N2c1ccc(OC2CCCCC2)cc1 (stereo not drawn) [Compound E173] | < 100 |
| CC(C)N(CC(F)(F)F)C(=N)OCc1ncc(C2=CCOCC2)c(Nc2ccc(N3CCOCC3)nc2)n1 [Compound E120] | 500 to 5000 |
| CNc1nc(COC(=N)N2CCCC2C(F)(F)F)nc2c1C(C)(C)C(=O)N2c1ccc(N2CCOCC2)cc1 (stereo not drawn) [Compound E152, [5,5-dimethyl-4-(methylamino)-7-(4-morpholinophenyl)-6-oxo-pyrrolo[2,3-d]pyrimidin-2 yl]methyl 2-(trifluoromethyl)pyrrolidine-1-carboximidate] | < 100 |
| CNc1nc(COC(=N)N2CCC[C@@H]2C(F)(F)F)nc2c(-c3ccc(N4CCOCC4)cc3OC)coc12 [Compound E184, (7-(2-Methoxy-4-morpholinophenyl)-4-(methylamino)furo[3,2-d]pyrimidin-2-yl)methyl (R)-2-(trifluoromethyl)pyrrolidine-1-carbimidate] | < 100 |
| C[C@@H]1CN(c2ccc(N3C(=O)C(C)(C)c4c(N)nc(COC(=N)N(CC(F)(F)F)C5CC5)nc43)cn2)C[C@H](C)O1 [Compound E193] | 100 to 500 |
| CC1(C)C(=O)N(c2ccc(N3CCOCC3)cc2)c2nc(COC(=N)N3CCCC3C(F)(F)F)nc(N)c21 (stereo not drawn) [Compound E170] | < 100 |
| CC(C)N(CC(F)(F)F)C(=N)OCc1ncc2c(n1)N(c1ccc(N3CCOCC3)cc1)C(=O)C21CCOCC1 [Compound E157, (7′-(4-morpholinophenyl)-6′-oxo-2,3,5,6,6′,7′-hexahydrospiro[pyran-4,5′-pyrrolo[2,3-d]pyrimidin]-2′-yl)methyl isopropyl(2,2,2-trifluoroethyl)carbamimidate] | > 5000 |
| [2H]C([2H])(OC(=N)N1CCCCC1C(F)(F)F)c1nc(N)c2c(n1)N(c1ccc(OC3CCCCC3)cc1)CC2(C)C (stereo not drawn) [Compound E155] | < 100 |
| CCCC[C@H]1Cc2cc(OC)ccc2[C@H](c2ccc(F)cc2)N1C(=O)CO/C(=N\C(C)C)NC(C)C [Compound A4] | 500 to 5000 |

| Structure (SMILES) | IC50 [nM] |
| --- | --- |
| COc1cc(F)ccc1N1CC(C)(C)c2c(NCC(F)(F)F)nc(COC(=N)N3CCC[C@@H]3C(F)(F)F)nc21 [Compound E208] | < 100 |
| N=C(OCc1nc(N)c2c(n1)N(c1ccc(F)c(F)c1)C(=O)C21CCCC1)N1CCC[C@@H]1C(F)(F)F [Compound E209] | < 100 |
| CC(C)N(CC(F)(F)F)C(=N)OCc1ncc2c(n1)N(c1ccc(N3CCOCC3)cc1)C(=O)C21CC1 [Compound E162] | 500 to 5000 |
| [2H]C([2H])(OC(=N)N1CCC(F)(F)CC1)c1nc(N)nc(Nc2ccc(Oc3ccccc3)cc2)n1 [Compound F10] | < 100 |
| C[C@@H]1CN(c2ccc(N3C(=O)C(C)(C)c4c(NC5CC5)nc(COC(=N)N5CCC[C@@H]5C(F)(F)F)nc43)cn2)C[C@H](C)O1 [Compound E188, (4-(Cyclopropylamino)-7-(6-((2S,6R)-2,6-dimethylmorpholino)pyridin-3-yl)-5,5-dimethyl-6-oxo-6,7-dihydro-5H-pyrrolo[2,3-d]pyrimidin-2-yl)methyl (R)-2-(trifluoromethyl)pyrrolidine-1-carbimidate] | < 100 |
| [2H]C([2H])(OC(=N)N(CC(F)(F)F)C(C)C)c1nc(N)c2c(n1)N(c1ccc(OC3CCCCC3)cc1)CC2(C)C [Compound E154, ethyl (4-amino-7-(4-(cyclohexyloxy)phenyl)-5,5-dimethyl-6,7-dihydro-5H-pyrrolo[2,3-d]pyrimidin-2-yl)methyl-d2 isopropyl(2,2,2-trifluoroethyl)carbamimidate] | < 100 |
| C[C@@H]1CN(c2ccc(N3CC4(CCC4)c4c(NCC(F)(F)F)nc(COC(=N)N5CCC[C@@H]5C(F)(F)F)nc43)cn2)C[C@H](C)O1 [Compound E21] | < 100 |
| CNc1nc(COC(=N)N2CCCC2C(F)(F)F)nc2c(-c3ccc(N4CCOCC4)cc3)csc12 (stereo not drawn) [Compound E179, (4-(Methylamino)-7-(4-morpholinophenyl)thieno[3,2-d]pyrimidin-2-yl)methyl 2-(trifluoromethyl)pyrrolidine-1-carbimidate] | < 100 |
| CC(C)N(CC(F)(F)F)C(=N)OCc1ncc2c(n1)N(c1cccc(OC3CCOCC3)c1)CC21CC1 [Compound E144] | 500 to 5000 |
| N=C(OCc1nc(NC2CC2)c2c(n1)N(c1cnc(N3CCOCC3)nc1)C(=O)C21CCCC1)N1CCC[C@@H]1C(F)(F)F [Compound E111] | < 100 |
| CC(C)N(CC(F)(F)F)C(=N)OCc1ncc2c(n1)N(C1CCC(Oc3ccccn3)CC1)C(=O)C21CC1 (stereo not drawn) [Compound E134] | 500 to 5000 |
| C[C@@H]1CN(c2ccc(N3C(=O)C(C)(C)c4c(N)nc(COC(=N)N(C)CC(F)(F)F)nc43)cn2)C[C@H](C)O1 [Compound E189, (4-amino-7-(6-((2R,6S)-2,6-dimethylmorpholino)pyridin-3-yl)-5,5-dimethyl-6-oxo-6,7-dihydro-5H-pyrrolo[2,3-d]pyrimidin-2-yl)methyl methyl(2,2,2-trifluoroethyl)carbamimidate] | 100 to 500 |
| CC(C)N(CC(F)(F)F)C(=N)OCc1ncc2c(n1)N(c1ccc(C3CCCCC3)cc1)C(=O)C21CC1 [Compound E159] | 100 to 500 |
| CC(C)N(CC(F)(F)F)C(=N)OCc1nc(Cl)c2c(n1)N(c1ccc(OC3CCCCC3)nc1)C(=O)C2(C)C [Compound E158, (4-chloro-7-(6-(cyclohexyloxy)pyridin-3-yl)-5,5-dimethyl-6-oxo-6,7-dihydro-5H-pyrrolo[2,3-d]pyrimidin-2-yl)methyl isopropyl(2,2,2-trifluoroethyl)carbamimidate] | 500 to 5000 |
| CC(C)N(CC(F)(F)F)C(=N)OCc1ncc2c(n1)N(c1ccc(OC3CC3)nc1)C(=O)C21CC1 [Compound E139] | 500 to 5000 |
| CC1(C)C(=O)N(c2ccc(N3CCOCC3)cc2)c2nc(COC(=N)N3CCC[C@@H]3C(F)(F)F)nc(N)c21 [Compound E117] | < 100 |
